Patent US8067406B2, “Preventive/remedy for retinal nerve diseases containing alkyl ether derivatives or salts thereof” (Toyama Chemical Co., Ltd., priority 2003, dated 2011)

Assays:
[1] = system: Rat Retinal Ischemia Reperfusion Model; test: Protecting effect of retinal nerve in rat retinal ischemia reperfusion model (electroretinogram measurement); type: in vivo; settings: SD rats, 30 min retinal ischemia; 10 mg/kg orally twice a day for 14 days from 2 days after reperfusion; ERG about 1 hour after final administration; distilled water control group 35%
Experimental: A rat retinal ischemia reperfusion model was prepared by a partially modified method of Steven Roth et al. (Experimental Eye Research, Vol. 65, pp. 771-779, 1997).
As experimental animals, SD rats (SPF, 9-week-old, male, approximately 300 g of body weight) were used. Such rats were anesthetized with halothane (introduction: 4%; retention: 2%; gas composition: 70% air+30% oxygen; gas flow rate: 2 L/min). The rat was placed on a fixing plate with the left body side upward. The skin located between the external acoustic foramen and the external canthus on the left side was incised, and the skin-incised portion was held with a hook. The temporal muscle was burned out with a bipolar coagulator (output: 4.5 W), and it was detached from the cranial bone and the mandibular arch. […]
ERG was measured in accordance with the method of Kawakami et al. (Gifu-dai Iki, Vol. 48, pp. 166-175, 2000). […] The obtained waveform was swept on a memory oscilloscope and then recorded by a thermal array recorder. […] ERG of the ischemic eye was evaluated as a ratio to the value of normal control eye. ERG was measured after adaptation to darkness at 2 days after retinal ischemia reperfusion, and at approximately 1 hour after the final administration.

melting point [°C]	ratio of the ERG amplitude value of the ischemic eye to the normal control eye [1] [%]	Compound
101 to 102	–	Cl.OC1CN(CCOCCc2ccc3sccc3c2)C1
–	65	O=C(O)/C=C\C(=O)O.OC1CN(CCCOCCc2ccc3sccc3c2)C1 [1-(3-(2-(1-benzothiophene-5-yl)ethoxy)propyl)-3-azetidinol maleate]
